Measured values published in publication PMC3419223, “Transient Receptor Potential Ankyrin 1 Channel Localized to Non-Neuronal Airway Cells Promotes Non-Neurogenic Inflammation” (PLoS ONE, 2012).
Ends that are not written are not given here.

Assays:
[1] = target: T1, PAR-2 receptor (Homo sapiens, UniProt P55085); experiment: Calcium imaging, response to the PAR-2 activating peptide (selectivity control); format: cell-based; conditions: PAR-2 AP 100 µM; antagonist 10 µM
T1 construct: endogenous in cells
T1 sequence (P55085 26-397): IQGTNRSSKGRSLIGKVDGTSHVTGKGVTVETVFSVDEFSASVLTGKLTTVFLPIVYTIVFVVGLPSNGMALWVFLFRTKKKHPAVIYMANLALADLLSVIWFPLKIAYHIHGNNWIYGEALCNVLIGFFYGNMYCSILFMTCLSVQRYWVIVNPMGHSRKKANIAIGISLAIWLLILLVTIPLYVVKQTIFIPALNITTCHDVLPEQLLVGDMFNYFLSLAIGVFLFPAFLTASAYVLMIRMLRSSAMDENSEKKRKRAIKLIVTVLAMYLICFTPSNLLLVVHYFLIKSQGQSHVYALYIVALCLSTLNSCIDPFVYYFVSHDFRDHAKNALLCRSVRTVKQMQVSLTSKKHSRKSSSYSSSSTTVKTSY
Protocol: (§1) For calcium fluorescence measurements, cells were incubated with 5 µM Fura-2AM ester (Alexis Biochemicals) for 40 minutes at 37°C. Intracellular calcium levels were measured and recorded with a dynamic image analysis system (Laboratory Automation 2.0; RC Software). Fluorescence was measured during excitation at 340 and 380 nm, and after correction for the individual background fluorescence signals, the ratio of the fluorescence at both excitation wavelengths (Ratio340/380) was monitored. Experiments were performed using buffer solution containing (in mM): 150 NaCl, 6 KCl, 1 MgCl2, 1.5 CaCl2, 10 glucose, 10 HEPES at pH 7.4. Cells were stimulated with cinnamaldehyde (0.1–3000 µM), acrolein (0.1–3000 µM), CSE (0.001–0.5 OD), capsaicin (1 µM) and the activating peptide (SLIGKV-NH2) of the human PAR-2 receptor (hPAR-2 AP; 100 µM), or their respective vehicles (0.3% DMSO,aqueous buffer or 1% ethanol). HC-030031 and AP18 vehicles (used in all the in vitro experiments) were 3% DMSO and 1% DMSO, respectively. Results are expressed as the increase of Ratio340/380 over the baseline normalized to the maximum effect induced by ionomycin (5 µM) added at the end of the experiment.

[2] = target: T2, TRPA1 (Homo sapiens, UniProt O75762); experiment: Calcium imaging (Fura-2) of TRPA1 agonist responses in human airway/lung cells; format: cell-based; conditions: for EC50: intracellular calcium response
T2 construct: cultured human airway cells, including fibroblasts, epithelial and smooth muscle cells express functional TRPA1 channels; endogenous in cells; host or cells: SAEC, NHLF, HBSMC (Lonza, primary); A549, IMR90 (ATCC)
T2 sequence (O75762 whole entry): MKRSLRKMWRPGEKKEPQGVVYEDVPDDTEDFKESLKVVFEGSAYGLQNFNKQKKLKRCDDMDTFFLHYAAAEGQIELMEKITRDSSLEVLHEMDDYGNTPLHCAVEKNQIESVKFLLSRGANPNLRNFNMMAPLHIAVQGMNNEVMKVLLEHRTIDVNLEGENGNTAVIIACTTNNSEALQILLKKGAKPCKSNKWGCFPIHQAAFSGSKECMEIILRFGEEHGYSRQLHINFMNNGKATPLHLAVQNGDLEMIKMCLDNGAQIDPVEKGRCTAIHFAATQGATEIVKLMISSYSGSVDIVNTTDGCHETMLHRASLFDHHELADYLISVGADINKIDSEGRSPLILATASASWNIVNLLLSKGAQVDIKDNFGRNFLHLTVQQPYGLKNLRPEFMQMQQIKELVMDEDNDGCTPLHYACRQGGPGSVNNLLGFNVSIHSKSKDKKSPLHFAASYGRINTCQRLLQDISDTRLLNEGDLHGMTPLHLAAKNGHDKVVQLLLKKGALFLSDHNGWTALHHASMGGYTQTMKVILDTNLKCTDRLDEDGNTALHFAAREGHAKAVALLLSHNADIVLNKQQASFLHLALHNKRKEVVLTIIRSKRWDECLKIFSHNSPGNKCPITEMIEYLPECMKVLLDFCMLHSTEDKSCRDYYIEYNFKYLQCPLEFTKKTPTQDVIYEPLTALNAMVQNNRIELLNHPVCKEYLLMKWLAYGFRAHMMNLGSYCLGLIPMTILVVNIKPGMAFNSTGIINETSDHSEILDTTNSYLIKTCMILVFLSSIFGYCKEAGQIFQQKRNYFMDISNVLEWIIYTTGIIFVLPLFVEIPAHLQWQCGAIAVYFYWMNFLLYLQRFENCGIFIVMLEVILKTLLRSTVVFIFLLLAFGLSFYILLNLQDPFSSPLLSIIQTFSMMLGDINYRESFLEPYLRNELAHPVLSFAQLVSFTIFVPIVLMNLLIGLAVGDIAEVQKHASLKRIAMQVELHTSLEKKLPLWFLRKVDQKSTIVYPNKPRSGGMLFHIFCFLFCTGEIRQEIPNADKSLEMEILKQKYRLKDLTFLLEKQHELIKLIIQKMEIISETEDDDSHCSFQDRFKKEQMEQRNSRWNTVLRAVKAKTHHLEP
Protocol: Human small airway epithelial cells (SAEC), normal human lung fibroblasts (NHLF) and human bronchial smooth muscle cells (HBSMC) were purchased from Lonza. Human alveolar type II epithelium-like adherent cell line (A549) and human lung embryonic fibroblast (IMR90) were purchased from American Type Culture Collection (Manassas, VA). SAEC and NHLF were cultured respectively in SAGM and FBM medium (Lonza) according to the manufacturer's instructions. IMR90 and HBSMC were cultured in DMEM supplemented with 10% FBS, 2 mM glutamine, 100 U penicillin and 100 µg/ml streptomycin (Sigma-Aldrich), and A549 were cultured in RPMI supplemented with 10% FBS, 2 mM glutamine, 100 U penicillin, 100 µg/ml streptomycin and 1 mM HEPES (Sigma-Aldrich). All cells were cultured in an atmosphere of 95% air and 5% CO2 at 37°C.
CSE was generated as previously reported. Briefly, aqueous CSE was obtained from the combustion of four cigarettes (Marlboro Red, 12 mg of tar, 0.9 mg of nicotine each) bubbled through 50 ml of buffer and subsequently filtered through a 0.2-µm pore filter (Millipore). To ensure reproducibility among different CSE batches, the absorbance (optical density; OD) measured at 320 nm was used as a measure of the “strength” of the extract. Dilutions were made with buffer to obtain the desired absorbance. The CSE was freshly prepared on the day of the experiment and used immediately after preparation.
as §1

[3] = test system: IL-8 release from SAEC, NHLF and HBSMC; experiment: IL-8 release from human airway/lung cells in primary culture, ELISA; format: cell-based; conditions: for IL-8 release: overnight exposure
Protocol: For IL-8 ELISA assays, HBSMC, SAEC, and NHLF were seeded in complete culture medium in 48-well plates, grown to ∼80–90% confluence, and incubated overnight in serum-free medium before treatments. All the treatments were performed in serum free medium. Cells were pretreated with the selective TRPA1 antagonists, HC-030031 and AP18, or their vehicles, for 30–60 min before treatment with freshly prepared acrolein, CSE, TNF-α and IL-1β for 18 hours at 37°C with 5% CO2. Subsequently, supernatants were collected and stored at −80°C for ELISA assay. Human IL-8 was measured using a paired antibody quantitative ELISA kit (Invitrogen) (detection limit: 5 pg/ml). The assays were performed according to the manufacturer's instructions. Vitality assay method (MTT reduction assay) is available online as (Text S1).

[4] = test system: C57BL/6 mouse trachea and bronchi; experiment: Plasma protein extravasation (Evans blue dye) after intratracheal instillation; format: in vivo; conditions: C57BL/6 mice; for plasma protein extravasation (PPE) after instillation into the tracheal lumen: i.t. 30 µl, acrolein 5 mM, CSE 1 OD, capsaicin 100 µM, SP 25 nM; for effect on SP (25 nM)- and capsaicin (100 µM)-evoked Evans blue dye extravasation (PPE): capsazepine 30 mg/kg i.p., HC-030031 300 mg/kg i.g.
Protocol: (§2) To defunctionalize/desensitize TRPV1 expressing primary sensory neurons, resiniferatoxin (RTX) was administered to C57BL/6 mice, as previously described, [40]. Briefly, mice were treated subcutaneously (s.c.) with a single injection of RTX (50 µg/kg) or its vehicle (10% ethanol and 10% tween 80 in isotonic saline) into the scruff of the neck under a light ether anesthesia to avoid unnecessary pain. Experiments were carried out 7 days after RTX treatment when responses to both TRPV1 and TRPA1 agonists in the treated mice were abolished, [40].
Anesthetized (sodium pentobarbital, 50 mg/kg i.p.) C57BL/6 mice received Evans blue dye (30 mg/kg i.v.), 1 min before intratracheal (i.t) instillation (30 µl) of acrolein (5 mM), capsaicin (100 µM), SP (25 nM), CSE (1 OD) or their vehicles (isotonic saline, 1% ethanol in isotonic saline and isotonic saline). […] The tachykinin NK1 receptor antagonist, L-733,060 (2 µmol/kg i.v.; Tocris) or its vehicle were administered 15 min before the stimulus. The TRPV1 selective antagonist, capsazepine, (30 mg/kg i.p.) or its vehicle (2.5% DMSO in isotonic saline) and intragastric (i.g.) TRPA1 selective antagonist, HC-030031 (300 mg/kg i.g.) or its vehicle were administered 30 and 60 min before the stimulus, respectively. In another set of experiments ACR (5 mM, i.t.), or its vehicle, has been administered in C57BL/6 mice desensitized to RTX (50 µg/kg; s.c.). Animals were euthanized 15 min after treatment and transcardially perfused with 0.9% isotonic saline solution. The extravasated dye was extracted from mouse trachea and bronchi by overnight incubation in formamide and assayed by spectrophotometry at 620 nm, as reported previously.

[5] = test system: C57BL/6 mice, Trpa1+/+ or Trpa1-/- mice; experiment: KC (CXCL-1) release in bronchoalveolar lavage fluid, ELISA; format: in vivo, mouse; conditions: for KC in BAL 24 hours after intratracheal instillation: i.t. 30 µl, acrolein 5 mM, CSE 1 OD, capsaicin 100 µM, SP 25 nM
Protocol: as §2
Trpa1^+/+ or Trpa1^−/− B6129P mice (5 per group) were exposed acutely to the cigarette smoke (CS) produced with commercial cigarettes (Marlboro Red, 12 mg of tar, 0.9 mg of nicotine each), by using a “nose-only” exposure unit. The smoke produced by cigarette burning was introduced into the exposure chamber (inner volume = 11.61 l) with the airflow generated by a mechanical ventilator (7025 Rodent Ventilator, Ugo Basile) at a rate of 250 ml/min [58]. A second mechanical ventilator was used to provide room air for dilution (1∶8) of the smoke stream. Mice were exposed to the smoke of 5 cigarettes per exposure period, twice daily, for 3 consecutive days, and sacrificed 24 hours later. Genotype-, age-, strain- and sex-matched control animals were exposed to air only in the same manner for the same duration of time. Anesthetized C57BL/6, and Trpa1^+/+ or Trpa1^−/− (C57BL/6) mice were intratracheally administered with (30 µl) acrolein (5 mM), capsaicin (100 µM), SP (25 nM) and CSE (1 OD) or their vehicles (isotonic saline, 1% ethanol in isotonic saline and isotonic saline) and sacrificed 24 hours later. The NK1 receptor antagonist, L-733,060 (2 µmol/kg i.v.; Tocris) or its vehicle (isotonic saline) were administered 15 min before the stimulus, and i.g. HC-030031 (300 mg/kg) or its vehicle (0.5% CMC in isotonic saline 0.9%) were administered 1 hour before the stimulus. In another set of experiments ACR (5 mM, i.t.), or its vehicle, has been administered in C57BL/6 mice desensitized to RTX (50 µg/kg; s.c.). Animals were sacrificed 24 hours after the last exposure/treatment with an overdose of anesthetic followed by exsanguination, and the lungs were lavaged using a cannula inserted into the trachea and instilling 1 ml of Hank's Buffer added with HEPES 10 mM and EDTA 10 mM three times. […] BAL were centrifuged at 200× g at 4°C for 10 min, and the cell-free supernatants were stored at −80°C for cytokine determination. Frozen cell-free BAL was analyzed for keratinocyte chemoattractant (CXCL-1/KC, the murine analogue of IL-8) release by using a commercial ELISA-assay (Invitrogen).

[6] = test system: TRPV1; experiment: Calcium imaging, response to the TRPV1 agonist capsaicin in human airway/lung cells; format: cell-based; conditions: 1 µM; SAEC, A549, NHLF, IMR90 and HBSMC; data not shown

For `CC(=C\c1ccc(Cl)cc1)/C(C)=N/O` [AP18], the “effect of antagonist on calcium response to the PAR-2 activating peptide” value [1] was “did not affect”, the “effect of antagonist on calcium response evoked by CNM, ACR or CSE” value ([2]; A549 and IMR90, antagonist 10 µM) was “abolished” and the “effect of antagonist on calcium responses to CNM, ACR and CSE” value ([2]; SAEC, NHLF, HBSMC, antagonist 10 µM) was “prevented”. For the same compound, the “effect of antagonist on CSE-evoked IL-8 release” value ([3]; HC-030031 30 µM, AP18 10 µM) was “reduced”, the “effect of antagonist on IL-8 release induced by IL-1β or TNF-α” value ([3]; HC-030031 30 µM, AP18 10 µM) was “not affected” and the “effect of antagonist on acrolein-evoked IL-8 release” value ([3]; HC-030031 30 µM, AP18 10 µM) was “significantly reduced”.
In the case of `C=CC=O` [Acrolein, acrolein], the “plasma protein extravasation (PPE) after instillation into the tracheal lumen” value (“plasma protein extravasation (PPE)” for short) [4] is reported as “increased PPE”, the “KC release in Trpa1-/- mice” value ([5]; 5 mM i.t., Trpa1-/- mice (C57BL/6)) is reported as “completely absent” and the “KC in BAL 24 hours after intratracheal instillation” value (“KC in BAL 24 hours” for short) ([5]; C57BL/6 mice) is reported as “significantly increased”. It also gave an EC50 ([2]; A549) of 7.3 µM, an EC50 ([2]; HBSMC) of 6.3 µM and an EC50 ([2]; IMR90) of 2.9 µM. For the same compound, the EC50 ([2]; NHLF) was 4.4 µM, the EC50 ([2]; SAEC) was 56.9 µM and the IL-8 release [3] was “concentration-dependent IL-8 release”.
Work on `O=C/C=C/c1ccccc1` [Cinnamaldehyde, cinnamaldehyde] yielded an EC50 ([2]; A549) of 10.9 µM, an EC50 ([2]; HBSMC) of 6.7 µM and an EC50 ([2]; IMR90) of 2.7 µM. For the same compound, the EC50 ([2]; NHLF) was 6.6 µM, the EC50 ([2]; SAEC) was 46.3 µM and the IL-8 release [3] was “release IL-8”.
`FC(F)(F)c1cc(CO[C@H]2CCCN[C@H]2c2ccccc2)cc(C(F)(F)F)c1` [L-733,060] was tested, and the “effect on acrolein (5 mM, i.t.)- and CSE (1 OD, i.t.)-evoked increase in PPE” value ([4]; L-733,060 2 µmol/kg i.v., CPZ 30 mg/kg i.p., HC 300 mg/kg i.g.) was “prevent”, the “effect on SP (25 nM)- and capsaicin (100 µM)-evoked Evans blue dye extravasation (PPE)” value ([4]; L-733,060 2 µmol/kg i.v.) was “prevented” and the “effect of pretreatment on KC release evoked by acrolein or CSE” value ([5]; HC-030031 300 mg/kg i.g., L-733,060 2 µmol/kg i.v., C57BL/6 mice) was “failed to reduce”.
For `C=C(C)[C@]12C[C@@H](C)[C@@]34O[C@](Cc5ccccc5)(O[C@@H]1[C@@H]3C=C(COC(=O)Cc1ccc(O)c(OC)c1)C[C@]1(O)C(=O)C(C)=C[C@@H]41)O2` [RTX, resiniferatoxin], the “acrolein-induced PPE after desensitization” value ([4]; RTX 50 µg/kg s.c., 7 days before, ACR 5 mM i.t.) was “completely abolished” and the “acrolein-induced increase in KC in BAL fluid after desensitization” value ([5]; RTX 50 µg/kg s.c., 7 days before, ACR 5 mM i.t., C57BL/6 mice) was “remained unchanged”.
With `COc1cc(CNC(=O)CCCC/C=C/C(C)C)ccc1O` [capsaicin] the “plasma protein extravasation (PPE)” value [4] was “increased PPE”, the “KC in BAL 24 hours” value ([5]; C57BL/6 mice) was “failed to increase” and the calcium response [6] was “failed to produce any visible calcium response”.
`Oc1cc2c(cc1O)CN(C(=S)NCCc1ccc(Cl)cc1)CCC2` [capsazepine] was tested, and the “effect on SP (25 nM)- and capsaicin (100 µM)-evoked Evans blue dye extravasation (PPE)” value ([4]; L-733,060 2 µmol/kg i.v.) was “prevented”.
In the case of “substance P (RPKPQQFFGLM-NH2; ends and bridges not checked; UniProt P20366 58-68, looked up) [SP, neuropeptide tachykinin released from sensory nerve terminals]”, the “plasma protein extravasation (PPE)” value [4] is reported as “increased PPE” and the “KC in BAL 24 hours” value ([5]; C57BL/6 mice) is reported as “failed to increase”.
